Measurements published in patent publication US9364477B2, “Mutant ROS expression in human cancer” (Cell Signaling Technology, Inc., priority 2009, dated 2016).

How the values were obtained:
[1] = tested on: Ros (D4D6) XP™ Rabbit mAb; conditions: HCC78 cells; antibody 0.19 μg/ml; peptide 1.9 ug/ml
Description: Briefly, paraffin embedded HCC78 cell pellets were deparaffinized and rehydrated through three changes of xylene and graded ethanol, then rinsed in diH2O. Slides were subjected to antigen retrieval in 1.0 mM EDTA, pH 8.0 in the microwave. After blocking for 1 hour in TBST/5% goat serum, slides were incubated overnight at 4° C. with Ros (D4D6) XP™ Rabbit mAb at 0.19 μg/ml in the absence of peptide or in the presence of one of 13 different ROS peptides at 1.9 ug/ml.
After washing, detection was performed with SignalStain® Boost IHC Detection Reagent (HRP, Rabbit) #8114 and NovaRed (Vector Laboratories, Burlingame, Calif.).

[2] = tested on: Karpas 299 cells; assay: MTS cell growth assay, Karpas 299 cells (NPM-ALK); type: cell-based; conditions: 0-1000 nM TAE-684, 72 hours
Description: (§1) BaF3 cells were transduced with retrovirus encoding FIG-ROS(S), FIG-ROS(L), or FLT-31TD (the Internal tandem duplication mutation in FLT3 causes AML leukemia), and selected for IL3 independent growth. Karpas 299 cells, which express NPM-ALK, was used as a positive control.
(§2) After 72 hours, 20 ul of the CellTiter 96 Aqueous One Solution Reagent was added into each well of a 96 well assay plate (flat bottom), and then 100 ul of cells grown with or without treatment. Media-only wells were used as controls. The 96 well plate was incubated for 1-4 hours at 37° C., and then viable cells were counted by reading the absorbance at 490 nm using a 96 well plate reader.

[3] = tested on: BaF3 expressing FIG-ROS(S); assay: MTS cell growth assay, BaF3 expressing FIG-ROS(S); type: cell-based, Murine
Description: as §1, §2

[4] = tested on: BaF3 expressing FIG-ROS(L); assay: MTS cell growth assay, BaF3 expressing FIG-ROS(L); type: cell-based, Murine; conditions: 0-1000 nM TAE-684, 72 hours
Description: as §1, §2

[5] = molecular target: FIG-ROS(S) (Homo sapiens, UniProt P08922); assay: Western blotting of phosphorylation, BaF3 FIG-ROS(S); type: cell-based; conditions: 0, 10, 50, or 100 nM TAE-684 for three hours
[6] = tested on: Karpas 299 cells; assay: Cleaved caspase-3 flow cytometry apoptosis assay, Karpas 299; type: cell-based; conditions: presence of TAE-684
Description: (§3) The mechanism of death of the BaF3 and Karpas 299 cells was next reviewed by measuring the percentage of cleaved-caspase 3 positive cells by flow cytometry assay using cleaved caspase-3 as a marker for apoptosis.

[7] = tested on: BaF3 cells expressing FIG-ROS(S); assay: Cleaved caspase-3 flow cytometry apoptosis assay, BaF3 FIG-ROS(S); type: cell-based, Murine; conditions: presence of TAE-684
Description: as §3

[8] = molecular target: FIG-ROS(L) (Homo sapiens, UniProt P08922); assay: Western blotting of phosphorylation, BaF3 FIG-ROS(L); type: cell-based; conditions: 0, 10, 50, or 100 nM TAE-684 for three hours
[9] = tested on: BaF3 cells transduced with the FLT-31TD retrovirus; assay: Western blotting of phosphorylation, BaF3 FLT-31TD; type: cell-based, Murine; conditions: 0, 10, 50, or 100 nM TAE-684 for three hours
[10] = tested on: BaF3 cells expressing FIG-ROS(L); assay: Cleaved caspase-3 flow cytometry apoptosis assay, BaF3 FIG-ROS(L); type: cell-based, Murine; conditions: presence of TAE-684
Description: as §3

[11] = tested on: BaF3 expressing FLT3ITD; assay: MTS cell growth assay, BaF3 transduced with FLT3/ITD; type: cell-based, Murine; conditions: 0-1000 nM TAE-684, 72 hours
Description: as §1, §2

phosphorylation of FIG-ROS(S) [5]	phosphorylation of STAT3, AKT, and ERK, and Shp2 (downstream signaling molecules) [5]	phosphorylation of FIG-ROS(L) [8]	phosphorylation of STAT3, AKT, and ERK, and Shp2 (downstream signaling molecules) [8]	Molecule	competition of ROS antibody binding off the IHC slide [1]	cellular growth response in the presence of TAE-684 [2]	cellular growth response in the presence of TAE-684 ([3]; BaF3 FIG-ROS(S), 0-1000 nM TAE-684, 72 hours, MTS)	susceptibility of FIG-ROS(S) to TAE-684 compared with FIG-ROS(L) ([3]; BaF3 cells, MTS assay)	cellular growth response in the presence of TAE-684 [4]	cell cycle arrest [6]	death by apoptosis (cleaved-caspase 3 positive cells) [6]	death by apoptosis (cleaved-caspase 3 positive cells) [7]	phosphorylation of STAT3, AKT, and ERK, and Shp2 [9]	death by apoptosis (cleaved-caspase 3 positive cells) [10]	cellular growth response in the presence of TAE-684 [11]
–	–	–	–	(biotin)AGAGVAYCPSGKPE [peptide 9]	able to compete	–	–	–	–	–	–	–	–	–	–
inhibited	inhibited	inhibited	inhibited	COc1cc(N2CCC(N3CCN(C)CC3)CC2)ccc1Nc1ncc(Cl)c(Nc2ccccc2S(=O)(=O)C(C)C)n1 [TAE-684]	–	stopped growing	stopped growing	less susceptible	stopped growing	underwent cell cycle arrest	did not die by apoptosis	die by apoptosis	not affected	die by apoptosis	not susceptible
